Assay results: patent US3970648A, “2-[2-(5-Nitro-2-furyl)vinyl]-4-(anilino)quinazolines” (Diamond Shamrock Corporation, priority 1974, dated 1976)

Experiments:
[1] = Growth promotion in chicks, titration dosage, Example IX (Table III); assay type: in vivo, broiler cross chicks
Excerpt: The concentrations used in this test were 6.25, 12.5, 25, 50, 100, 200 and 400 g of the Product of Example I per ton of the Basal Ration described in Example VII above. The same number and size chick treatment groups were used in this test as in Example VIII above.

[2] = Growth promotion in chicks at 25 g/T, Example X (Table IV); assay type: in vivo, broiler cross chicks; details: 25 g/T
Excerpt: This example compares growth promotion activity of the product of Example I with other growth promotants at a concentration of 25 g/T in the Basal Ration described in Example VII. The other growth promotants include the product described in Example I of U.S. Pat. No. 3,542,784 -- Burch and quinoxaline-1,4-dioxide. Day old broiler cross chicks were weight equalized into groups of eight chicks each, and four replicates of eight chicks each were fed the experimental rations over a 4 week period.

O=[N+]([O-])c1ccc(C=Cc2nc(Nc3ccc(O)cc3)c3ccccc3n2)o1 [Example I, 2-[2-(5-nitro-2-furyl)vinyl]-4-(p-hydroxyanilino)quinazoline]
Average 4 Week Performance: Feed Efficiency ([1]; 6.25 g/T): 1.657
Average 4 Week Performance: Gain ([1]; 6.25 g/T): 714.6 g
Improved Response Over Basal Ration: Feed Efficiency ([1]; 6.25 g/T): +3.4%
Improved Response Over Basal Ration: Gain ([1]; 6.25 g/T): -3.4%
activity (in words) ([1]; 6.25 g/T): little or no activity
Average 4 Week Performance: Feed Efficiency ([1]; 12.5 g/T): 1.652
Average 4 Week Performance: Gain ([1]; 12.5 g/T): 765.3 g
Improved Response Over Basal Ration: Feed Efficiency ([1]; 12.5 g/T): +3.7%
Improved Response Over Basal Ration: Gain ([1]; 12.5 g/T): +3.4%
Average 4 Week Performance: Feed Efficiency ([1]; 25 g/T): 1.603
Average 4 Week Performance: Gain ([1]; 25 g/T): 805.7 g
Improved Response Over Basal Ration: Feed Efficiency ([1]; 25 g/T): +6.5%
Improved Response Over Basal Ration: Gain ([1]; 25 g/T): +8.9%
Average 4 Week Performance: Feed Efficiency ([1]; 50 g/T): 1.609
Average 4 Week Performance: Gain ([1]; 50 g/T): 785.3 g
Improved Response Over Basal Ration: Feed Efficiency ([1]; 50 g/T): +6.2%
Improved Response Over Basal Ration: Gain ([1]; 50 g/T): +6.1%
Average 4 Week Performance: Feed Efficiency ([1]; 100 g/T): 1.663
Average 4 Week Performance: Gain ([1]; 100 g/T): 742.7 g
Improved Response Over Basal Ration: Feed Efficiency ([1]; 100 g/T): +3.0%
Improved Response Over Basal Ration: Gain ([1]; 100 g/T): +0.4%
weight gain improvement (in words) ([1]; 100 g/T): unexplained absence of weight gain improvement
Average 4 Week Performance: Feed Efficiency ([1]; 200 g/T): 1.609
Average 4 Week Performance: Gain ([1]; 200 g/T): 782.5 g
Improved Response Over Basal Ration: Feed Efficiency ([1]; 200 g/T): +6.2%
Improved Response Over Basal Ration: Gain ([1]; 200 g/T): +5.8%
Average 4 Week Performance: Feed Efficiency ([1]; 400 g/T): 1.678
Average 4 Week Performance: Gain ([1]; 400 g/T): 751.5 g
Improved Response Over Basal Ration: Feed Efficiency ([1]; 400 g/T): +2.2%
Improved Response Over Basal Ration: Gain ([1]; 400 g/T): +1.6%
response (in words) ([1]; 400 g/T): sharp downturn
level at which noticeable growth promotion began ([1]; in vivo): 12.5 g/T
optimum concentration (economics and efficacy) ([1]; in vivo): 25 g/T
effect on feed efficiency (in words) [2]: strongest response in growth rate and feed efficiency
growth response (in words) [2]: strongest response in growth rate and feed efficiency
